Columns and labels:
[1] = Human microsome stability assay; assay type: in vitro ADME; conditions: human liver microsomes, 1 µM test compound, 0.5 mg/mL protein, 37°C, up to 30 minutes
Experimental: Human microsome stability assay
The human microsomal stability assay is used for early assessment of metabolic stability of a test compound in human liver microsomes.
Human liver microsomes (Cat.NO.: 452117, Corning, USA;Cat.NO.:H2610, Xenotech, USA) were preincubated with test compound for 10 minutes at 37°C in 100 mM potassium phosphate buffer, pH 7.4. The reactions were initiated by adding NADPH regenerating system. The final incubation mixtures contained 1 µM test compound, 0.5 mg/mL liver microsomal protein, 1 mM MgCl2, 1 mM NADP, 1 unit/mL isocitric dehydrogenase and 6 mM isocitric acid in 100 mM potassium phosphate buffer, pH 7.4. After incubation times of 0, 3, 6, 9, 15 and 30 minutes at 37°C, 300 µL of cold acetonitrile (including internal standard) was added to 100 µL incubation mixture to terminate the reaction. Following precipitation and centrifugation, the amount of compound remaining in the samples were determined by LC-MS/MS. Controls of no NADPH regenerating system at zero and 30 minutes were also prepared and analyzed. […] Table 3. Human liver microsome stability of the compounds of present invention

[2] = molecular target: T1, hTLR9 (Homo sapiens, UniProt Q9NR96); set-up: host or cells: HEK; conditions: data disclosed in US20150105370; read-out: HEK/hTLR9 IC50; cited from earlier work
T1 sequence (Q9NR96 26-1032): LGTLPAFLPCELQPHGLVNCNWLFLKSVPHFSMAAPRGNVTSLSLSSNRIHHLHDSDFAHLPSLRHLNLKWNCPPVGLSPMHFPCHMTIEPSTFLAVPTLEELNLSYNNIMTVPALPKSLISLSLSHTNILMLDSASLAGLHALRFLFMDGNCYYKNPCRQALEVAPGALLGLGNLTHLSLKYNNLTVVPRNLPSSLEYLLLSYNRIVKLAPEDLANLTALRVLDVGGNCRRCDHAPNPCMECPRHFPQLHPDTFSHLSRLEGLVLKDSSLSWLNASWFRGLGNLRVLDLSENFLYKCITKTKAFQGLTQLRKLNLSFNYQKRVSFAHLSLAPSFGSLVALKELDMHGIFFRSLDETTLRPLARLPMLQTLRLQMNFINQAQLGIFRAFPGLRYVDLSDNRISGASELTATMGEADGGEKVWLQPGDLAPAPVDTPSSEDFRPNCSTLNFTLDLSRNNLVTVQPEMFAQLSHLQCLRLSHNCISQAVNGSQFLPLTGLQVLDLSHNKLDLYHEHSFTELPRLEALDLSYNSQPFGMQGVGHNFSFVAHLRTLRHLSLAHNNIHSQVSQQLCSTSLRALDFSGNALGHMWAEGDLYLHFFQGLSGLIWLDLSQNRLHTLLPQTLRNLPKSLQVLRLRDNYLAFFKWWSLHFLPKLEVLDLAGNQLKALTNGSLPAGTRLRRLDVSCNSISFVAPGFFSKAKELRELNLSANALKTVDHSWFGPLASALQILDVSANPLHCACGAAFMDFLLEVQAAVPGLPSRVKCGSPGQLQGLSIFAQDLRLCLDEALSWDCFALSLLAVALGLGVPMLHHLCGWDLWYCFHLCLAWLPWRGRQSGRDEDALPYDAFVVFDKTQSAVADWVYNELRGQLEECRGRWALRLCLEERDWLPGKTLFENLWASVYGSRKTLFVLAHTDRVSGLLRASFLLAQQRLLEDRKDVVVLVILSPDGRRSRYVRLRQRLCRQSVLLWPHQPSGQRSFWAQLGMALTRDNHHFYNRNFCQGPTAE

[3] = molecular target: T2, hTLR7 (Homo sapiens, UniProt Q9NYK1); set-up: host or cells: HEK; conditions: data disclosed in US20150105370; read-out: HEK/hTLR7 IC50; cited from earlier work
T2 sequence (Q9NYK1 27-1049): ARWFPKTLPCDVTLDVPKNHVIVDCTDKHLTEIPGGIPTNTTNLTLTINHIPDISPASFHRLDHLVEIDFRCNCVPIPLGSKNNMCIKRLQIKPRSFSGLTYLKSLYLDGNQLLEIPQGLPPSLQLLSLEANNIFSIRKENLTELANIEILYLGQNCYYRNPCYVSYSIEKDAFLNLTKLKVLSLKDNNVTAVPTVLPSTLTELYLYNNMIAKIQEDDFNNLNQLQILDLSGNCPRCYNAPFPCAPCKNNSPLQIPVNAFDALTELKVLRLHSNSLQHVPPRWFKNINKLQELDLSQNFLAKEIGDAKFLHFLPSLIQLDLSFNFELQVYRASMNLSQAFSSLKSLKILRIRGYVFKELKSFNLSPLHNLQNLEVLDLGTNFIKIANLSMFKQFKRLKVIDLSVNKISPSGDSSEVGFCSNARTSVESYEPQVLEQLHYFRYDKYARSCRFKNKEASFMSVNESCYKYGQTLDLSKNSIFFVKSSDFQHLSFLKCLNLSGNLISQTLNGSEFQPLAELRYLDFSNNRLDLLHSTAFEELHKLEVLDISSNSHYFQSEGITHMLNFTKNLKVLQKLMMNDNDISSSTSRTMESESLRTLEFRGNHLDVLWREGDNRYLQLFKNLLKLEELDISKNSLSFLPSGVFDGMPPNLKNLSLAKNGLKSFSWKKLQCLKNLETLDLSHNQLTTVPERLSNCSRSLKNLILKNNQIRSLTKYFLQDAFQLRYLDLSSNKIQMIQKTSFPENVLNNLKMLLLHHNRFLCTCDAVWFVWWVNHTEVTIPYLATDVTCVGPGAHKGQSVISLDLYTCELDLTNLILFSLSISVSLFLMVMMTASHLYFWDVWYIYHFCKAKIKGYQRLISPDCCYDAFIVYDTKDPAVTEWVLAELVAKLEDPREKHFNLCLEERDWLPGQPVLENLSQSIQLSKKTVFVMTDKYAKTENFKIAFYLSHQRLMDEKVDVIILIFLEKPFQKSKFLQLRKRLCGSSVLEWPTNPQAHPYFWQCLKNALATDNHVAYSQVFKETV

SMILES	Clearance of Human microsome [1]	IC50 [2]	IC50 [3]
C[C@@H]1CN(c2ccc(C#N)c3ncccc23)C[C@H](CN2Cc3ccc(N4CCNCC4C(=O)O)cc3C2)O1 (stereo partly drawn) [Example 56, 1-[2-[[(2S,6R)-4-(8-cyano-5-quinolyl)-6-methyl-morpholin-2-yl]methyl]isoindolin-5-yl]piperazine-2-carboxylic acid]	6.51 mL/min/kg	–	–
C[C@@H]1CN(c2ccc(C#N)c3ncccc23)C[C@H](CNc2ccccc2)O1 [ER-886601]	–	> 2000 nM	15 nM
Cc1cccc(NC[C@H]2CN(c3ccc(C#N)c4ncccc34)C[C@@H](C)O2)c1 [ER-886602]	–	> 20000 nM	185 nM
Cc1nc2cc(NC[C@H]3CN(c4ccc(C#N)c5ncccc45)C[C@@H](C)O3)ccc2n1C [ER-886608]	–	3370 nM	13 nM
C[C@@H]1CN(c2ccc(C#N)c3nccnc23)C[C@H](CN2Cc3ccc(N4CC5CCC(C4)N5)cc3C2)O1 [Example 44, 8-[(2S,6R)-2-[[5-(3,8-diazabicyclo[3.2.1]octan-3-yl)isoindolin-2-yl]methyl]-6-methyl-morpholin-4-yl]quinoxaline-5-carbonitrile]	6.94 mL/min/kg	–	–
Cc1cccc(NC[C@H]2CN(c3ccc(C#N)c4ncccc34)C[C@@H](C)O2)n1 [ER-886799]	–	> 2000 nM	7 nM

— patent publication EP3623369A1, “NOVEL MORPHOLINYL AMINE COMPOUNDS FOR THE TREATMENT OF AUTOIMMUNE DISEASE” (F. Hoffmann-La Roche AG, priority 2018, dated 2020)
